Measurements taken from PubChem BioAssay (NCI).
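Protocol summary: plate cells (96-well), add compound at 5 concentrations, incubate 48 h, interpolate endpoints linearly. At the TGI there is no net growth.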

Columns and labels:
Assay in all cases: inhibition of tumour cell growth, NCI panel, 48 h
786-0 renal = system: 786-0 renal
A498 renal = system: A498 renal
A549 NSCLC = system: A549 NSCLC
ACHN renal = system: ACHN renal
BT-549 breast = system: BT-549 breast
CAKI-1 renal = system: CAKI-1 renal
CCRF-CEM leukemia = system: CCRF-CEM leukemia
COLO 205 colon = system: COLO 205 colon
DU-145 prostate = system: DU-145 prostate
EKVX NSCLC = system: EKVX NSCLC
HCC-2998 colon = system: HCC-2998 colon
HCT-116 colon = system: HCT-116 colon
HCT-15 colon = system: HCT-15 colon
HL-60(TB) leukemia = system: HL-60(TB) leukemia
HOP-62 NSCLC = system: HOP-62 NSCLC
HOP-92 NSCLC = system: HOP-92 NSCLC
HS 578T breast = system: HS 578T breast
HT29 colon = system: HT29 colon
IGROV1 ovarian = system: IGROV1 ovarian
K-562 leukemia = system: K-562 leukemia
KM12 colon = system: KM12 colon
LOX IMVI melanoma = system: LOX IMVI melanoma
M14 melanoma = system: M14 melanoma
MALME-3M melanoma = system: MALME-3M melanoma
MCF7 breast = system: MCF7 breast
MDA-MB-231 breast = system: MDA-MB-231 breast
MDA-MB-435 = system: MDA-MB-435
MDA-N = system: MDA-N
MOLT-4 leukemia = system: MOLT-4 leukemia
NCI-H226 lung = system: NCI-H226 lung
NCI-H23 lung = system: NCI-H23 lung
NCI-H460 lung = system: NCI-H460 lung
NCI-H522 lung = system: NCI-H522 lung
NCI/ADR-RES ovarian = system: NCI/ADR-RES ovarian
OVCAR-3 ovarian = system: OVCAR-3 ovarian
OVCAR-4 ovarian = system: OVCAR-4 ovarian
OVCAR-5 ovarian = system: OVCAR-5 ovarian
OVCAR-8 ovarian = system: OVCAR-8 ovarian
PC-3 prostate = system: PC-3 prostate
RPMI-8226 leukemia = system: RPMI-8226 leukemia
RXF 393 renal = system: RXF 393 renal
SF-268 CNS = system: SF-268 CNS
SF-295 CNS = system: SF-295 CNS
SF-539 CNS = system: SF-539 CNS
SK-MEL-2 melanoma = system: SK-MEL-2 melanoma
SK-MEL-28 melanoma = system: SK-MEL-28 melanoma
SK-MEL-5 melanoma = system: SK-MEL-5 melanoma
SN12C renal = system: SN12C renal
SNB-19 CNS = system: SNB-19 CNS
SNB-75 CNS = system: SNB-75 CNS
SR leukemia = system: SR leukemia
SW-620 colon = system: SW-620 colon
T-47D breast = system: T-47D breast
TK-10 renal = system: TK-10 renal
U251 CNS = system: U251 CNS
UACC-257 melanoma = system: UACC-257 melanoma
UACC-62 melanoma = system: UACC-62 melanoma
UO-31 renal = system: UO-31 renal
SK-OV-3 ovarian = system: SK-OV-3 ovarian

For `Cc1ccc(-c2n[nH]c(=O)n2/N=C\c2ccccc2)cc1`, the TGI (786-0 renal) was > 100 µM, the TGI (A498 renal) was > 100 µM and the TGI (A549 NSCLC) was > 100 µM. The TGI (ACHN renal) was > 100 µM, the TGI (BT-549 breast) was > 73.8 µM and the TGI (CAKI-1 renal) was > 100 µM. The TGI (CCRF-CEM leukemia) was > 100 µM, the TGI (COLO 205 colon) was > 100 µM and the TGI (DU-145 prostate) was > 100 µM. The TGI (EKVX NSCLC) was > 100 µM, the TGI (HCC-2998 colon) was > 100 µM and the TGI (HCT-116 colon) was > 100 µM. For the same compound, the TGI (HCT-15 colon) was > 100 µM, the TGI (HL-60(TB) leukemia) was > 100 µM and the TGI (HOP-62 NSCLC) was 62.1 µM. The TGI (HOP-92 NSCLC) was 66.4 µM, the TGI (HS 578T breast) was 81.3 µM and the TGI (HT29 colon) was > 100 µM. The TGI (IGROV1 ovarian) was > 100 µM, the TGI (K-562 leukemia) was > 100 µM and the TGI (KM12 colon) was > 100 µM. For the same compound, the TGI (LOX IMVI melanoma) was > 100 µM, the TGI (M14 melanoma) was > 100 µM and the TGI (MALME-3M melanoma) was > 100 µM. For the same compound, the TGI (MCF7 breast) was > 100 µM, the TGI (MDA-MB-231 breast) was > 100 µM and the TGI (MDA-MB-435) was > 100 µM. The TGI (MDA-N) was > 93.9 µM, the TGI (MOLT-4 leukemia) was > 100 µM and the TGI (NCI-H226 lung) was > 100 µM. For the same compound, the TGI (NCI-H23 lung) was > 100 µM, the TGI (NCI-H460 lung) was > 100 µM and the TGI (NCI-H522 lung) was > 100 µM. For the same compound, the TGI (NCI/ADR-RES ovarian) was > 100 µM, the TGI (OVCAR-3 ovarian) was > 100 µM and the TGI (OVCAR-4 ovarian) was > 100 µM. For the same compound, the TGI (OVCAR-5 ovarian) was > 100 µM, the TGI (OVCAR-8 ovarian) was > 100 µM and the TGI (PC-3 prostate) was > 100 µM. For the same compound, the TGI (RPMI-8226 leukemia) was > 100 µM, the TGI (RXF 393 renal) was > 81.5 µM and the TGI (SF-268 CNS) was > 89.1 µM. The TGI (SF-295 CNS) was 69 µM, the TGI (SF-539 CNS) was > 100 µM and the TGI (SK-MEL-2 melanoma) was 99.8 µM. The TGI (SK-MEL-28 melanoma) was > 100 µM, the TGI (SK-MEL-5 melanoma) was > 100 µM and the TGI (SN12C renal) was > 90.4 µM. For the same compound, the TGI (SNB-19 CNS) was > 100 µM, the TGI (SNB-75 CNS) was 80.3 µM and the TGI (SR leukemia) was > 100 µM. For the same compound, the TGI (SW-620 colon) was > 100 µM, the TGI (T-47D breast) was > 100 µM and the TGI (TK-10 renal) was > 100 µM. For the same compound, the TGI (U251 CNS) was > 100 µM, the TGI (UACC-257 melanoma) was > 100 µM and the TGI (UACC-62 melanoma) was > 100 µM. For the same compound, the TGI (UO-31 renal) was > 100 µM.
For `CSc1ccc(C(=O)C(=O)c2ccc(SC)s2)s1`, the TGI (786-0 renal) was > 10 µM, the TGI (A549 NSCLC) was > 10 µM and the TGI (ACHN renal) was > 10 µM. The TGI (CAKI-1 renal) was > 10 µM, the TGI (CCRF-CEM leukemia) was > 10 µM and the TGI (COLO 205 colon) was > 10 µM. For the same compound, the TGI (DU-145 prostate) was > 10 µM, the TGI (EKVX NSCLC) was > 10 µM and the TGI (HCC-2998 colon) was > 10 µM. The TGI (HCT-116 colon) was > 10 µM, the TGI (HCT-15 colon) was > 10 µM and the TGI (HL-60(TB) leukemia) was > 10 µM. The TGI (HOP-62 NSCLC) was > 10 µM, the TGI (HOP-92 NSCLC) was > 10 µM and the TGI (HS 578T breast) was > 10 µM. The TGI (HT29 colon) was > 10 µM, the TGI (IGROV1 ovarian) was > 10 µM and the TGI (K-562 leukemia) was > 10 µM. The TGI (KM12 colon) was > 10 µM, the TGI (LOX IMVI melanoma) was > 10 µM and the TGI (M14 melanoma) was > 10 µM. The TGI (MCF7 breast) was > 10 µM, the TGI (MDA-MB-231 breast) was > 10 µM and the TGI (MDA-MB-435) was > 10 µM. The TGI (MDA-N) was > 10 µM, the TGI (MOLT-4 leukemia) was 7.78 µM and the TGI (NCI-H226 lung) was > 10 µM. The TGI (NCI-H23 lung) was > 10 µM, the TGI (NCI-H460 lung) was > 10 µM and the TGI (NCI-H522 lung) was > 10 µM. The TGI (NCI/ADR-RES ovarian) was > 10 µM, the TGI (OVCAR-3 ovarian) was > 10 µM and the TGI (OVCAR-4 ovarian) was > 10 µM. For the same compound, the TGI (OVCAR-5 ovarian) was > 10 µM, the TGI (OVCAR-8 ovarian) was > 10 µM and the TGI (PC-3 prostate) was > 10 µM. The TGI (RPMI-8226 leukemia) was > 10 µM, the TGI (RXF 393 renal) was > 10 µM and the TGI (SF-268 CNS) was > 10 µM. For the same compound, the TGI (SF-295 CNS) was > 10 µM, the TGI (SF-539 CNS) was > 10 µM and the TGI (SK-MEL-2 melanoma) was > 10 µM. For the same compound, the TGI (SK-MEL-28 melanoma) was > 10 µM, the TGI (SK-MEL-5 melanoma) was > 10 µM and the TGI (SK-OV-3 ovarian) was > 10 µM. For the same compound, the TGI (SN12C renal) was > 10 µM, the TGI (SNB-19 CNS) was > 10 µM and the TGI (SNB-75 CNS) was > 10 µM. For the same compound, the TGI (SR leukemia) was > 10 µM, the TGI (SW-620 colon) was > 10 µM and the TGI (T-47D breast) was > 10 µM. The TGI (TK-10 renal) was > 10 µM, the TGI (U251 CNS) was > 10 µM and the TGI (UACC-257 melanoma) was > 10 µM. For the same compound, the TGI (UACC-62 melanoma) was > 10 µM and the TGI (UO-31 renal) was > 10 µM.
With `Nc1nc(Cl)cc(NCC2(O)CCCC2)n1` the TGI (786-0 renal) was > 100 µM, the TGI (A498 renal) was > 100 µM and the TGI (A549 NSCLC) was > 100 µM. For the same compound, the TGI (ACHN renal) was > 100 µM, the TGI (BT-549 breast) was > 100 µM and the TGI (CAKI-1 renal) was > 100 µM. The TGI (CCRF-CEM leukemia) was > 100 µM, the TGI (COLO 205 colon) was > 100 µM and the TGI (DU-145 prostate) was > 100 µM. For the same compound, the TGI (EKVX NSCLC) was > 100 µM, the TGI (HCC-2998 colon) was > 100 µM and the TGI (HCT-116 colon) was > 100 µM. The TGI (HCT-15 colon) was > 100 µM, the TGI (HL-60(TB) leukemia) was > 100 µM and the TGI (HOP-62 NSCLC) was > 100 µM. For the same compound, the TGI (HOP-92 NSCLC) was > 100 µM, the TGI (HS 578T breast) was > 100 µM and the TGI (HT29 colon) was > 100 µM. For the same compound, the TGI (IGROV1 ovarian) was > 100 µM, the TGI (K-562 leukemia) was > 100 µM and the TGI (KM12 colon) was > 100 µM. For the same compound, the TGI (LOX IMVI melanoma) was > 100 µM, the TGI (MALME-3M melanoma) was > 100 µM and the TGI (MCF7 breast) was > 100 µM. For the same compound, the TGI (MDA-MB-231 breast) was > 100 µM, the TGI (MDA-MB-435) was > 100 µM and the TGI (MDA-N) was > 100 µM. For the same compound, the TGI (MOLT-4 leukemia) was > 100 µM, the TGI (NCI-H226 lung) was > 100 µM and the TGI (NCI-H23 lung) was > 100 µM. For the same compound, the TGI (NCI-H460 lung) was > 100 µM, the TGI (NCI-H522 lung) was > 100 µM and the TGI (NCI/ADR-RES ovarian) was > 100 µM. For the same compound, the TGI (OVCAR-3 ovarian) was > 100 µM, the TGI (OVCAR-4 ovarian) was > 100 µM and the TGI (OVCAR-5 ovarian) was > 100 µM. For the same compound, the TGI (OVCAR-8 ovarian) was > 100 µM, the TGI (PC-3 prostate) was > 100 µM and the TGI (RPMI-8226 leukemia) was > 100 µM. The TGI (RXF 393 renal) was > 100 µM, the TGI (SF-268 CNS) was > 100 µM and the TGI (SF-295 CNS) was > 100 µM. For the same compound, the TGI (SF-539 CNS) was > 100 µM, the TGI (SK-MEL-2 melanoma) was > 100 µM and the TGI (SK-MEL-28 melanoma) was > 100 µM. For the same compound, the TGI (SK-MEL-5 melanoma) was > 100 µM, the TGI (SK-OV-3 ovarian) was > 100 µM and the TGI (SN12C renal) was > 100 µM. For the same compound, the TGI (SNB-75 CNS) was > 100 µM, the TGI (SR leukemia) was > 100 µM and the TGI (SW-620 colon) was > 100 µM. For the same compound, the TGI (T-47D breast) was > 100 µM, the TGI (TK-10 renal) was > 100 µM and the TGI (U251 CNS) was > 100 µM. The TGI (UACC-257 melanoma) was > 100 µM, the TGI (UACC-62 melanoma) was > 100 µM and the TGI (UO-31 renal) was > 100 µM.
